Measured values as given in patent US11274106B2, “Topoisomerase inhibitors with antibacterial and anticancer activity” (THE BOARD OF TRUSTEES OF THE UNIVERSITY OF ILLINOIS, priority 2017, dated 2022).
Entries after “also recorded” stand apart in the source; their conditions may differ.

Columns and labels:
Top1cc = target: T1, Top1cc (Homo sapiens, UniProt P11387); assay: ICE assay for Top1-DNA adducts in H460 cells; assay type: cell-based; conditions: for Accumulation of Top1cc (ICE assay): H460 cells, 50 μM, 30 min; for Mode of topoisomerase inhibition: in vitro and cell culture experiments taken together
T1 construct: endogenous in cells; host or cells: H460
T1 sequence (P11387 2-765 limits assumed): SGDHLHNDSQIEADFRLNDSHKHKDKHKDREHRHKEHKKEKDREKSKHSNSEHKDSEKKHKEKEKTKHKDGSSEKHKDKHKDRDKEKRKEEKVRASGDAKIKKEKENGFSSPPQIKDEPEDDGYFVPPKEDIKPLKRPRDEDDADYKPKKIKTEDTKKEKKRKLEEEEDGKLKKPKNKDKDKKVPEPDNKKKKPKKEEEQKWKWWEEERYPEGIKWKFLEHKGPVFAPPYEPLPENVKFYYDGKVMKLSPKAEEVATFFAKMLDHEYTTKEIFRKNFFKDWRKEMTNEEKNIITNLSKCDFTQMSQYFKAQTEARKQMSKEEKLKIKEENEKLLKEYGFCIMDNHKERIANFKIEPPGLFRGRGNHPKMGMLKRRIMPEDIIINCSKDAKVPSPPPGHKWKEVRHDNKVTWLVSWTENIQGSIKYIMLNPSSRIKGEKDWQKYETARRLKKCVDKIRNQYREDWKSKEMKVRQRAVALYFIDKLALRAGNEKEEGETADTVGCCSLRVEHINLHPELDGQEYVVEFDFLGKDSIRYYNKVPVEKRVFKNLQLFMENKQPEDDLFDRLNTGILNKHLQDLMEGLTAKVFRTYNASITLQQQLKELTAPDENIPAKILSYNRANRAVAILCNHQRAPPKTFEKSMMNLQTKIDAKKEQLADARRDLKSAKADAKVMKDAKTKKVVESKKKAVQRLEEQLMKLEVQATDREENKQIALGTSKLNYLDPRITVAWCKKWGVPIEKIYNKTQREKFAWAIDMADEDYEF
From the text: (§1) FIG. 3. DNM derivatives are dual Top1/Top2 inhibitors with different modes of inhibition. (a) Inhibition of decatenating ability of Top2α with increasing concentrations of ETP, 6DNM-NH3, 6DNM-Pyr, and Ph-6DNM-NH3. K, kinetoplast DNA; OC, open circular; R, relaxed. (b) Inhibition of relaxing ability of Top1 with increasing concentrations of CPT, 6DNM-NH3, 6DNM-Pyr, and Ph-6DNM-NH3. R, relaxed; S, supercoiled. (c) Detection of Top2a-DNA using the ICE Assay. Genomic DNA ([…]) of H460 cells treated with drugs (50 μM, 30 min) was applied to nitrocellulose membrane and immunoblotted for Top2a. (d) Detection of Top1-DNA adducts using ICE Assay. Same procedure as (c) using 1 μg of DNA. (e) Inhibition of ETP-induced poisoning of Top2a. H460 cells treated with indicated concentrations of inhibitor for 30 min prior to treatment with ETP (50 μM). Detection of Top2α as in (c).
The in vivo complex of enzyme (ICE) assay can be used to distinguish poisons from catalytic inhibitors. The ICE assay consists of isolating the genomic DNA of cells treated with small molecules in a manner the preserves covalent DNA-protein complexes and applying it to nitrocellulose membranes. Because topoisomerase poisons stabilize the cleavage complexes, DNA-protein complexes can be detected by immunoblotting for specific topoisomerases, whereas catalytic inhibitors produce no such result. To determine if DNM derivatives are acting as poisons or catalytic inhibitors, H460 human lung cells were exposed to 50 μM of the Top2 poison ETP, Ph-6DNM-NH3, 6DNM-NH3, and 6DNM-Pyr and assessed for their ability to stabilize Top2cc. […] In a similar fashion, next investigated was the mode of Top1 inhibition using the ICE assay (FIG. 3b).

BT-474 = assay: Antiproliferative SRB assay, BT-474; assay type: cell-based; conditions: for IC50: Homo sapiens, BT-474, 72 h, Breast cancer, mean ± SEM
From the text: (§2) Topoisomerase inhibitors such as DOX are used as single agent and in combination therapy to treat a wide-range of cancer types.

H460 = assay: Antiproliferative SRB assay, H460; assay type: cell-based; conditions: Homo sapiens, NCI-H460, 72 h, Lung cancer, mean ± SEM
From the text: as §2

panel of cancer cells = assay: Average over panel of 10 cancer cell lines; assay type: cell-based; conditions: 72 hour, read-out: Average (mean) IC50 over the cell line panel
From the text: as §2

Top2α = Top2α (Homo sapiens, UniProt P11388); assay: Top2α kDNA decatenation assay; assay type: biochemical; conditions: gel electrophoresis, FIG. 3a
From the text: as §1
FIG. 9. Mechanism of action studies: Topoisomerases form transient covalent complexes with DNA to modify DNA topology. Ph6DNM-NH3 and 6DNM-NH3 inhibit bacterial DNA gyrase and human topoisomerase II in vitro.
The ability of Ph-6DNM-NH3, 6DNM-NH3, and 6DNM-Pyr to inhibit Top2α was assessed using a decatenation assay. In this assay, Top2α is incubated with kinetoplast DNA (kDNA), a large network of catenated minicircles and maxicircles of DNA. As Top2α decatenates the kDNA, it releases supercoiled and relaxed DNA minicircles that are easily separated from the kDNA by gel electrophoresis.

Sequence of Top2α (P11388 whole entry): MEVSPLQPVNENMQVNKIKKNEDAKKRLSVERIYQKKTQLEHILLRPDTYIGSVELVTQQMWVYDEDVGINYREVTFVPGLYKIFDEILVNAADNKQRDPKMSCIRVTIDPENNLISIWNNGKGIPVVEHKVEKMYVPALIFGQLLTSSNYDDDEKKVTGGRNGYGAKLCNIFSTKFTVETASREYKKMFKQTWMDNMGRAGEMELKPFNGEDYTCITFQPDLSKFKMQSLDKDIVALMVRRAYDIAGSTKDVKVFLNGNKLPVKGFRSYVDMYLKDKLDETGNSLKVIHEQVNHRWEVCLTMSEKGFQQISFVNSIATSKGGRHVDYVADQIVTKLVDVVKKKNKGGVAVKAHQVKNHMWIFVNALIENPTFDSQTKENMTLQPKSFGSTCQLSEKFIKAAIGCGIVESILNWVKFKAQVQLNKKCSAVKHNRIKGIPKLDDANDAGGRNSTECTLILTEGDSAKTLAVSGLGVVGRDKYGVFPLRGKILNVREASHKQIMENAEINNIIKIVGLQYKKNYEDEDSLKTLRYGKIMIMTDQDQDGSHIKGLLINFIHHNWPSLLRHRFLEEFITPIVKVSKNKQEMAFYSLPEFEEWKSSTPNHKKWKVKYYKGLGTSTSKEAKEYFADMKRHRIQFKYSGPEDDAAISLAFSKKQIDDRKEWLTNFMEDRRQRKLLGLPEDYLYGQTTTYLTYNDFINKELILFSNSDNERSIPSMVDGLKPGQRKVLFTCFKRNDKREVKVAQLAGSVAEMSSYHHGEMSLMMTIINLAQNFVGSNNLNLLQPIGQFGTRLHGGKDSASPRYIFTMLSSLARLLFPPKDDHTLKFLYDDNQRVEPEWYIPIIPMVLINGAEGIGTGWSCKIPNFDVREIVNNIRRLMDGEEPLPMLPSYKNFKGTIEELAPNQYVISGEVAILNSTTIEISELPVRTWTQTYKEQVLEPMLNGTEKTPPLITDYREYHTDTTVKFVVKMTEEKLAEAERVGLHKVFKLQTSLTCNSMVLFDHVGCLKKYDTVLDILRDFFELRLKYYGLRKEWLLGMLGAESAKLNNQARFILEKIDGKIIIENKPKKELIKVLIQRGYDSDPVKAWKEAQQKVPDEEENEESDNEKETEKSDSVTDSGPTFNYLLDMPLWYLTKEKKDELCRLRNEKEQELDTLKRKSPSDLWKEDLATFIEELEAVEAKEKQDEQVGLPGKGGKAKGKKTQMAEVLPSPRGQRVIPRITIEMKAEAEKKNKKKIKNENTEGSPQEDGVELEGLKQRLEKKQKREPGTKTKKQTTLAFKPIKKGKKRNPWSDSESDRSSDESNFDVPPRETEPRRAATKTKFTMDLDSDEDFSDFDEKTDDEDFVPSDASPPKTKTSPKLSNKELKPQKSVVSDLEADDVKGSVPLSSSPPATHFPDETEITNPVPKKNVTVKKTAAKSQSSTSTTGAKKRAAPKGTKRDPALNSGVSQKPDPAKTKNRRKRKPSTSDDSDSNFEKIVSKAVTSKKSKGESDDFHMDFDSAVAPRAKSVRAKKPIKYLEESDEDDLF

Structure (SMILES)	Accumulation of Top1cc (ICE assay) (Top1cc)	Mode of topoisomerase inhibition (Top1cc)	Effectiveness in BT-474 after Top1 degradation (BT-474; FIG. 4b, 72 hour)	IC50 (BT-474) [nM]	IC50 (H460) [nM]	IC50 (panel of cancer cells) [nM]	Inhibition of decatenating function of Top2α (Top2α; listed as Ph-6DNM-NH3)	Inhibition of decatenating function of Top2α (Top2α; listed as 6DNM-Pyr)
Cc1cc(=O)n2c3c(c4c(cc13)c1ccccc1c(=O)n4C)OCC2CN (stereo not shown) [Compound 15]	leads to the accumulation of Top1cc	Top1 poison/Top2α catalytic inhibitor	similarly reduced, however to a lesser extent	690 ± 50	12 ± 2	164	inhibit the decatenating function of Top2α in a dose-dependent manner; also recorded: the least active derivative in this in vitro assay	
Cc1cc(=O)n(C)c2c3c4c(cc12)c(C)cc(=O)n4C(CN1CCCC1)CO3 (stereo not shown) [Compound 20]	neither 6DNM-NH3 nor 6DNM-Pyr, leads to the accumulation of Top1cc	dual Top1/Top2α catalytic inhibitors		91 ± 4	6.6 ± 0.5	25		inhibit the decatenating function of Top2α in a dose-dependent manner; also recorded: inhibiting Top2α function at lower concentrations than 6DNM-NH3
